Measurements: article PMC6704710, “Preclinical evaluation of 3D185, a novel potent inhibitor of FGFR1/2/3 and CSF-1R, in FGFR-dependent and macrophage-dominant cancer models” (Journal of Experimental & Clinical Cancer Research : CR, 2019)

How the values were obtained:
Assay in all cases: Eurofins kinase panel
Format in all cases: biochemical
Details in all cases: read-out: Inhibition rate (%)
[1] = target: T1, HIPK2(h) (Homo sapiens, UniProt Q9H2X6)
T1 construct: purchased Eurofins (KinaseProfiler)
T1 sequence (Q9H2X6 whole entry): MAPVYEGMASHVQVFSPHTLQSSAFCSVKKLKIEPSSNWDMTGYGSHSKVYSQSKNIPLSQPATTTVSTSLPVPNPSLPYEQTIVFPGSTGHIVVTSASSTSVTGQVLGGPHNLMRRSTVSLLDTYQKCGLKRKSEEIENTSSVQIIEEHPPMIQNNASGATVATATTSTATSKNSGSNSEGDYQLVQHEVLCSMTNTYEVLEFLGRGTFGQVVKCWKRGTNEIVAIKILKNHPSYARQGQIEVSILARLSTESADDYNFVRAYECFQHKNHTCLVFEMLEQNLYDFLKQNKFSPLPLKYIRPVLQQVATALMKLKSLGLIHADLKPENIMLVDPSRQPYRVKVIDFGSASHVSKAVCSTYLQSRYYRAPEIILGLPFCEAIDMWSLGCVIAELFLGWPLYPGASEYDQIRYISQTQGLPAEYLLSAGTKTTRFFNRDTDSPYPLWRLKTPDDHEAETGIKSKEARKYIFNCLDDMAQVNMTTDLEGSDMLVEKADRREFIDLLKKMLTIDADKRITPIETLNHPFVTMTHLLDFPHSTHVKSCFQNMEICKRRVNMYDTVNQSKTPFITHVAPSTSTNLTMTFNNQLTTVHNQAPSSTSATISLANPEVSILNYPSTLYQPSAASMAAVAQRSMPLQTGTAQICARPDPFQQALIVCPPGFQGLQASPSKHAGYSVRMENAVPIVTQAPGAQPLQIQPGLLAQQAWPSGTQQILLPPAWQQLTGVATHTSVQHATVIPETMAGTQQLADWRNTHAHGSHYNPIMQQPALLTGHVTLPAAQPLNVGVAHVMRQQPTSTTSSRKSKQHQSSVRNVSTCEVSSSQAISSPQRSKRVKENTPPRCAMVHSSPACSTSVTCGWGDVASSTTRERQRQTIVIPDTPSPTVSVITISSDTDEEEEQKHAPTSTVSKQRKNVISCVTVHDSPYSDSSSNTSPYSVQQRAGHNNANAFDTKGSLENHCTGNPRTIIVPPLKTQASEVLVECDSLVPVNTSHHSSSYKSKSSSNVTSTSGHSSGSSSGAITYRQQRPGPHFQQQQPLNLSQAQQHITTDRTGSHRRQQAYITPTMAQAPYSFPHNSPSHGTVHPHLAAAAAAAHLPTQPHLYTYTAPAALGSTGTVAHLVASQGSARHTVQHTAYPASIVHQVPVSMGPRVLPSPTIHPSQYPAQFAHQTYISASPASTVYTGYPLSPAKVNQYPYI

[2] = target: T2, DCAMKL3(h) (Homo sapiens, UniProt Q9C098)
T2 construct: purchased Eurofins (KinaseProfiler)
T2 sequence (Q9C098 1-648): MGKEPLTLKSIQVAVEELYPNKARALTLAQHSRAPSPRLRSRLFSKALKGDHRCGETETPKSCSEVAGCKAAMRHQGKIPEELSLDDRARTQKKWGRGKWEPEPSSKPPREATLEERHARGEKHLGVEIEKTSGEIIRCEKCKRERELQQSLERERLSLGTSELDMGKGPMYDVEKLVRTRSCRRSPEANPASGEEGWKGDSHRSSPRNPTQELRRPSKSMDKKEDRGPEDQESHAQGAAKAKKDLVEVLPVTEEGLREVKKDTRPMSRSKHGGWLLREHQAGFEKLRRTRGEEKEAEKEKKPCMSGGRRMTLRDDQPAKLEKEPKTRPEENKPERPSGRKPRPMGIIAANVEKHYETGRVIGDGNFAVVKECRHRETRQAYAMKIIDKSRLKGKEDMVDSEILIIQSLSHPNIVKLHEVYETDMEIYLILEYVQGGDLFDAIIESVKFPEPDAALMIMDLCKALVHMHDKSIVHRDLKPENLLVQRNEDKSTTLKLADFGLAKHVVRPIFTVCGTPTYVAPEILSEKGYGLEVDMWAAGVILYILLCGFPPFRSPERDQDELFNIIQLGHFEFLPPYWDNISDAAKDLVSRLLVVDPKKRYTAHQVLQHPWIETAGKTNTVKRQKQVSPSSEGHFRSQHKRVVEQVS

[3] = target: T3, EphB3(h) (Homo sapiens, UniProt P54753)
T3 construct: purchased Eurofins (KinaseProfiler)
T3 sequence (P54753 34-998): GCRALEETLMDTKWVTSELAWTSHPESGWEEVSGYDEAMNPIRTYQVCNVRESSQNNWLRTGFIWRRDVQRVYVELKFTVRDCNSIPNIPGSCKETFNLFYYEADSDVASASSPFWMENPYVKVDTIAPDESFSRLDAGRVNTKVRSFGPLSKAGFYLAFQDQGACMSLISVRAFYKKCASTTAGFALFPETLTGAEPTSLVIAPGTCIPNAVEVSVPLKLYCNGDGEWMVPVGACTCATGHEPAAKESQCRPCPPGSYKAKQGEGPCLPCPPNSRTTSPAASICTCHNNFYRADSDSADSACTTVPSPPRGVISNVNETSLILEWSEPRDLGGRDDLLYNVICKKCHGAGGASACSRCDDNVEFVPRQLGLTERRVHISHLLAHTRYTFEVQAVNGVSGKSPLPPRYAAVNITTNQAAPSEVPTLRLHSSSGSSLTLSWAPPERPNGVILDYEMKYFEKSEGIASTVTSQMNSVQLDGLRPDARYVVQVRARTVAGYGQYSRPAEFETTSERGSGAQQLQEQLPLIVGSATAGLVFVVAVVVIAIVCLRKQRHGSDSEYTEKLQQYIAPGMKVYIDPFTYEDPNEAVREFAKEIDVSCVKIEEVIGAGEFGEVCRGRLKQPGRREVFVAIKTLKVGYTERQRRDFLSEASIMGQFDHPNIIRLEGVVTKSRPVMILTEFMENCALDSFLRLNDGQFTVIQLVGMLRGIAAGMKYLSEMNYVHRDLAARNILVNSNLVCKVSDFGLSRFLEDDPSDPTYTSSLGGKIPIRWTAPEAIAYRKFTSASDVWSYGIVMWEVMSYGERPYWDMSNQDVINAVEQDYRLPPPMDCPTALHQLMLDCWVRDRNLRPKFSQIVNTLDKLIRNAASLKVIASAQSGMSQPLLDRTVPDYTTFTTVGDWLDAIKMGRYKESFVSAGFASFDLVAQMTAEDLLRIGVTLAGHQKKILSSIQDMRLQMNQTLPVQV

[4] = target: T4, SRPK2(h) (Homo sapiens, UniProt P78362)
T4 construct: purchased Eurofins (KinaseProfiler)
T4 sequence (P78362 whole entry): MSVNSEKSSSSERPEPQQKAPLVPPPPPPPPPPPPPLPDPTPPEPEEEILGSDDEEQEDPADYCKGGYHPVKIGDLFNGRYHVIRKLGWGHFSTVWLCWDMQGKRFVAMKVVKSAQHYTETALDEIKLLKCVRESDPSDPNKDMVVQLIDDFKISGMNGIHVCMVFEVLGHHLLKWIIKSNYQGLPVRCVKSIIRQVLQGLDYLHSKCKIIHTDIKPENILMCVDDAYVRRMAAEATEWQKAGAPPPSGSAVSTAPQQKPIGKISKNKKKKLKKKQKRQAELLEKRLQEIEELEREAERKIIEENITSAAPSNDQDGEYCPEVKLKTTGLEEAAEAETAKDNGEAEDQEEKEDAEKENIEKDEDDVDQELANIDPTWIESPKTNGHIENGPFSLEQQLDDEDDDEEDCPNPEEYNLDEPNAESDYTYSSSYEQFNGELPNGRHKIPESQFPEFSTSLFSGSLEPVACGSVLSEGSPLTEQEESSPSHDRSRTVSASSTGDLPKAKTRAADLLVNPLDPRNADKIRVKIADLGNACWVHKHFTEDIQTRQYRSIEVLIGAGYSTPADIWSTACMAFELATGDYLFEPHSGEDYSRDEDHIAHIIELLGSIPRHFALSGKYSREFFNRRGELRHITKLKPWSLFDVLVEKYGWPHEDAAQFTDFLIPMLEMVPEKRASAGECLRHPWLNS

[5] = target: T5, Met(D1246N)(h) (Homo sapiens, UniProt P08581, D1228N)
T5 construct: purchased Eurofins (KinaseProfiler)
T5 sequence (P08581 956-1390 D1228N limits assumed): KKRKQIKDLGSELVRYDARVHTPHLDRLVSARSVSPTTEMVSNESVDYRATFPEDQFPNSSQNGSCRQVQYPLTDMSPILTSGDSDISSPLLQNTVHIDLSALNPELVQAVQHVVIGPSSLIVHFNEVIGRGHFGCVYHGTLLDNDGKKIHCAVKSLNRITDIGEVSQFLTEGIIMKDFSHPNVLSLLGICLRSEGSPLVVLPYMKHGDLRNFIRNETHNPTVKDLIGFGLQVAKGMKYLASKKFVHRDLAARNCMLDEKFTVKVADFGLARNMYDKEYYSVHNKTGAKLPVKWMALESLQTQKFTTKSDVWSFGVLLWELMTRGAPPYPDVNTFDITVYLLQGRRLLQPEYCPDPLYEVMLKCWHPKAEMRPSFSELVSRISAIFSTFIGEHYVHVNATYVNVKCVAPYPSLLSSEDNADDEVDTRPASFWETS

[6] = target: T6, PAK2(h) (Homo sapiens, UniProt Q13177)
T6 construct: purchased Eurofins (KinaseProfiler)
T6 sequence (Q13177 whole entry): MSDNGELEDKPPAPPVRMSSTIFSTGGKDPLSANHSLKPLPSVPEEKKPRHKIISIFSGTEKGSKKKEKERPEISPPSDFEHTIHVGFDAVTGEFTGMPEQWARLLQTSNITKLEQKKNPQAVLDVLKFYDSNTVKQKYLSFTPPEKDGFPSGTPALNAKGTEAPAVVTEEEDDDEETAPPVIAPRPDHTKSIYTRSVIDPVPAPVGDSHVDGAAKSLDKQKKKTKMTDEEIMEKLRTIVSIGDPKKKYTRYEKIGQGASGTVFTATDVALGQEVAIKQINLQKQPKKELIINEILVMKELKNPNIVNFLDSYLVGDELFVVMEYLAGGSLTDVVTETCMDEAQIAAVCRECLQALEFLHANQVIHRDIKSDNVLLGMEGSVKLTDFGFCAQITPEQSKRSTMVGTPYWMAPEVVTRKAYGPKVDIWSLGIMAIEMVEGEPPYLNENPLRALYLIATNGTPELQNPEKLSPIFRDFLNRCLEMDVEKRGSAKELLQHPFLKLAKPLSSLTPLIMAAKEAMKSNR

[7] = target: T7, Fms(Y969C)(h) (Homo sapiens, UniProt P07333, Y969C)
T7 construct: purchased Eurofins (KinaseProfiler)
T7 sequence (P07333 20-972 Y969C): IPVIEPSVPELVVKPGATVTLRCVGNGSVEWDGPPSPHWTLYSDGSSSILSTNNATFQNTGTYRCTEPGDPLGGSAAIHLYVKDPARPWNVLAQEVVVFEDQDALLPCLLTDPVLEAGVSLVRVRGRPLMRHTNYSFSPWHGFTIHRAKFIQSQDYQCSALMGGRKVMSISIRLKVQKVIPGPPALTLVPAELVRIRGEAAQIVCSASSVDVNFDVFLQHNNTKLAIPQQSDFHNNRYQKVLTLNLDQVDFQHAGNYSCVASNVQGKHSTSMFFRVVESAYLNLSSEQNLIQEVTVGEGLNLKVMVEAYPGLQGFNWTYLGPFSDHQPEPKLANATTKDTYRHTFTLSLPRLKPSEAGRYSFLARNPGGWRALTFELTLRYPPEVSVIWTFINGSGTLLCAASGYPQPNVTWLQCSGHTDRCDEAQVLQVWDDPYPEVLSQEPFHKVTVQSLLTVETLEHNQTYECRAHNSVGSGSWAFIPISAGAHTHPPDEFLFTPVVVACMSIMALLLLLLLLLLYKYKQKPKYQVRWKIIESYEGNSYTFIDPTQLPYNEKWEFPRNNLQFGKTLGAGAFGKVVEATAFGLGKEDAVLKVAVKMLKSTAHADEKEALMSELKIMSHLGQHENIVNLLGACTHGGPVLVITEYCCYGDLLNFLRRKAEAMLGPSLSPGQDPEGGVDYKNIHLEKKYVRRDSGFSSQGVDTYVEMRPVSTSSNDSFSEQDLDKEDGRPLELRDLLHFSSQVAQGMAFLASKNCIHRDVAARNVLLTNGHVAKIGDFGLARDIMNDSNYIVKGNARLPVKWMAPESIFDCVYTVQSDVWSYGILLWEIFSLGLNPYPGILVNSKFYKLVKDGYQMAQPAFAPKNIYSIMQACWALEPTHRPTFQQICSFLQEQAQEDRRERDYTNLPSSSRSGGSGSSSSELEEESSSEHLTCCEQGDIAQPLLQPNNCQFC

[8] = target: T8, IRAK1(h) (Homo sapiens, UniProt P51617)
T8 construct: purchased Eurofins (KinaseProfiler)
T8 sequence (P51617 whole entry): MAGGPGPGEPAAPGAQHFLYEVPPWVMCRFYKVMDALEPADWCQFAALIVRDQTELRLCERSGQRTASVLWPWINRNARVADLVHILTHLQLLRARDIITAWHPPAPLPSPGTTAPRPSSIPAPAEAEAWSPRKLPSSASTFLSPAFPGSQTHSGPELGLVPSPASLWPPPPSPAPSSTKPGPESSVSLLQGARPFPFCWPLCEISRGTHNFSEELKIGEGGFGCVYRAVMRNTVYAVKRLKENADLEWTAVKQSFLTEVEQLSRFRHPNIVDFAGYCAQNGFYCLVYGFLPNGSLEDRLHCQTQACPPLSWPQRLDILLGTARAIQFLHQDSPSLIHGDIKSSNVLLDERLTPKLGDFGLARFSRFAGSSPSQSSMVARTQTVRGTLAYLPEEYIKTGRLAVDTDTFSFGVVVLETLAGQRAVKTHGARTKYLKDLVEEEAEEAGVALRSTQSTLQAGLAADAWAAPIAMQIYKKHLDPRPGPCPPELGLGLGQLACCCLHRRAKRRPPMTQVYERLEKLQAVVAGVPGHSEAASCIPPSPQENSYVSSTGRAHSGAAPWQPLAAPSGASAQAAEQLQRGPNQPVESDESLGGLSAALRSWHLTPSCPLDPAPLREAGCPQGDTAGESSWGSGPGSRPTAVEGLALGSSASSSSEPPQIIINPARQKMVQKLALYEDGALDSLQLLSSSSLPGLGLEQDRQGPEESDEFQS

COc1cc(OC)c(Cl)c(-c2ccc3c(NC(=O)c4ccc(N5CCNC(C)(C)C5)cc4)n[nH]c3n2)c1Cl [3D185]
inhibition at 0.01 µM ([1]; 10 nM): 3% | inhibition at 0.1 µM ([1]; 100 nM): 6% | inhibition at 1 µM ([1]; 1000 nM): -10% | inhibition at 0.01 µM ([2]; 10 nM): 5% | inhibition at 0.1 µM ([2]; 100 nM): 7% | inhibition at 1 µM ([2]; 1000 nM): 16% | inhibition at 0.01 µM ([3]; 10 nM): 13% | inhibition at 0.1 µM ([3]; 100 nM): 1% | inhibition at 1 µM ([3]; 1000 nM): 5% | inhibition at 0.01 µM ([4]; 10 nM): 2% | inhibition at 0.1 µM ([4]; 100 nM): 2% | inhibition at 1 µM ([4]; 1000 nM): -7% | inhibition at 0.01 µM ([5]; 10 nM): -18% | inhibition at 0.1 µM ([5]; 100 nM): -11% | inhibition at 1 µM ([5]; 1000 nM): 3% | inhibition at 0.01 µM ([6]; 10 nM): 5% | inhibition at 0.1 µM ([6]; 100 nM): -5% | inhibition at 1 µM ([6]; 1000 nM): -5% | inhibition at 0.01 µM ([7]; 10 nM): 34% | inhibition at 0.1 µM ([7]; 100 nM): 75% | inhibition at 1 µM ([7]; 1000 nM): 95% | inhibition at 0.01 µM ([8]; 10 nM): 4% | inhibition at 0.1 µM ([8]; 100 nM): 0% | inhibition at 1 µM ([8]; 1000 nM): 19%
